Literature values in patent US12042557B2, “Rapid establishment and/or termination of substantial steady-state drug delivery” (Intarcia Therapeutics, Inc., priority 2009, dated 2024).
Read-outs that look alike come from different tables or passages of the source.

Experiments:
[1] = system: subjects on metformin-only background treatment, type 2 diabetes mellitus
[2] = in vivo
[3] = Treatment F: oral 100 mg/day, subjects with baseline HbA1c less than 9.0
[4] = Treatment F: oral once a day 100 mg/day, metformin background, Bergenstal 2010

Compound | change of HbA1c for the study [1, 3] [%] | endpoint HbA1c % [1, 3] [%] | change of HbA1c for the study [1, 4] [%] | endpoint HbA1c % [1, 4] [%] | percentage of subjects who achieved an HbA1c of 7% or less [1, 4] [%] | half-life [2]
N[C@@H](CC(=O)N1CCn2c(nnc2C(F)(F)F)C1)Cc1cc(F)c(F)cc1F [sitagliptin, Sitagliptin] | −0.5 | 7.2 | −0.9 | 7.6 | 31 | 
PYY: 36 amino acid residue peptide amide [peptide YY] |  |  |  |  |  | approximately 8 minutes
